Residues, ends and D or L forms follow the SMILES beside them. *: point of attachment. Palmitoyl = CCCCCCCCCCCCCCCC(=O)*
Assay: In vivo skin penetration study #1 (Tape Stripping method), magnetic array vs finger
Set-up: species or system human
Details: for combined amount of Pal-KTTKS on tape strips, Mean: mean of the three strip groups; for combined amount of Pal-KTTKS on tape strips, Mean / combined amount of Pal-KTTKS on tape strips: in ng; for delivery of Pal-KTTKS, active compared to passive application: three test subjects
Experimental: An in vivo skin penetration study was conducted to establish the effect of using a skin care product of the present invention by applying a skin care composition comprising Pal-KTTKS (SEQ ID NO: 1) with an applicator comprising a magnetic array. The study compared the penetration of the Pal-KTTKS (SEQ ID NO: 1) in combination with a variety of magnetic arrays (active application) to the penetration of Pal-KTTKS (SEQ ID NO: 1) applied with a finger (passive application). Penetration of Pal-KTTKS (SEQ ID NO: 1) in this example is determined according to the Tape Stripping method. In this example, the level of Pal-KTTKS (SEQ ID NO: 1) present in the extract from each tape strip was measured using HPLC and the results normalized to the protein level measured on the tape strip.
This method provides a suitable means of measuring the amount of skin care active present in skin, and comparing active versus passive application of the skin care active. Two identical rectangular areas of 15 cm^2 are marked on the volar forearms of volunteers. A measured dose (approximately 30 mg) of the Pal-KTTKS (SEQ ID NO: 1) formulation is applied to the delineated areas using a screw actuated syringe. Active application is carried out on one of the delineated areas using the three-quarter profile of a purpose made applicator (e.g., an applicator presenting one of the magnetic arrays set forth in Table 2). Passive application is accomplished on the other delineated area using the tip of a finger in a sweeping motion identical to that of the active application. The formulation is spread evenly across the entire delineated region using a sweeping motion with a fixed speed of approximately 23 cm/s to […]. The application period is 30 seconds during which time visual inspection is used to ensure even distribution and absorption of the formulation by skin. The application area is then left uncovered for a further 30 minutes to ensure complete absorption. Tape strip samples may be collected and/or analyzed immediately after the complete absorption is ensured or after a waiting period (e.g., after multiple applications of the formulation over multiple hours or days).
The tape stripping procedure is carried out using 10 commercial pre-cut 22.1 mm tape stripping adhesive discs (e.g., D-SQUAME, available from Cuderm Corporation or equivalent) with an adhesive area of 3.8 cm^2. The 10 tape strips are applied sequentially to the same sampling site, which ideally enables each tape strip to obtain a sample from deeper within the stratum corneum than the tape strip that preceded it. A 22.1 mm diameter circular region is marked at the center of the application area. A tape stripping adhesive disc is placed over the marked area and even pressure applied using, for example, a neoprene roller, rolled ten times over the adhesive disc. The adhesive disc is removed from the skin surface in a single pulling motion using manual tweezers. To ensure even removal of the skin sample, subsequent discs are removed in a “north, south, east and west” orientation, which is within the skill of the ordinary artisan. Each adhesive disc is non-destructively analysed for protein content using a suitable instrument (e.g., SquameScan™ 850 instrument commercially available from Heiland Electronics Wetzlar, Germany, or equivalent). The adhesive disc is then immediately placed into a glass vial containing extraction solvent in preparation for subsequent analysis. Solvent extractions are conducted on each tape strip using conventional extraction methods, which are well known to those of ordinary skill in the art, and measuring the amount of Pal-KTTKS (SEQ ID NO: 1) present in the extract, for example, by high performance liquid chromatography (“HPLC”) and/or mass spectrometry.
The procedure is repeated for the remaining nine strips. An additional strip is obtained from outside the area of application of the skin care formulation to serve as a blank sample. […]

combined amount of Pal-KTTKS on tape strips, Mean (array 4, active, Average): 102.11
combined amount of Pal-KTTKS on tape strips, Mean (array 4, active, subject 1, 1st test): 144.79
combined amount of Pal-KTTKS on tape strips, Mean (array 4, active, subject 1, 2nd test): 96.97
combined amount of Pal-KTTKS on tape strips, Mean (array 4, active, subject 2, 1st test): 122.02
combined amount of Pal-KTTKS on tape strips, Mean (array 4, active, subject 2, 2nd test): 78.21
combined amount of Pal-KTTKS on tape strips, Mean (array 4, active, subject 3 (2nd test of Table 7)): 68.57
combined amount of Pal-KTTKS on tape strips (array 4, active, strips 2-4, Average): 108.81
combined amount of Pal-KTTKS on tape strips (array 4, active, strips 2-4, subject 1, 1st test): 158.48
combined amount of Pal-KTTKS on tape strips (array 4, active, strips 2-4, subject 1, 2nd test): 82.45
combined amount of Pal-KTTKS on tape strips (array 4, active, strips 2-4, subject 2, 1st test): 129.33
combined amount of Pal-KTTKS on tape strips (array 4, active, strips 2-4, subject 2, 2nd test): 94.10
combined amount of Pal-KTTKS on tape strips (array 4, active, strips 2-4, subject 3 (2nd test of Table 7)): 79.66
combined amount of Pal-KTTKS on tape strips (array 4, active, strips 5-7, Average): 107.95
combined amount of Pal-KTTKS on tape strips (array 4, active, strips 5-7, subject 1, 1st test): 154.85
combined amount of Pal-KTTKS on tape strips (array 4, active, strips 5-7, subject 1, 2nd test): 117.42
combined amount of Pal-KTTKS on tape strips (array 4, active, strips 5-7, subject 2, 1st test): 121.51
combined amount of Pal-KTTKS on tape strips (array 4, active, strips 5-7, subject 2, 2nd test): 73.41
combined amount of Pal-KTTKS on tape strips (array 4, active, strips 5-7, subject 3 (2nd test of Table 7)): 72.59
combined amount of Pal-KTTKS on tape strips (array 4, active, strips 8-10, Average): 89.57
combined amount of Pal-KTTKS on tape strips (array 4, active, strips 8-10, subject 1, 1st test): 121.04
combined amount of Pal-KTTKS on tape strips (array 4, active, strips 8-10, subject 1, 2nd test): 91.03
combined amount of Pal-KTTKS on tape strips (array 4, active, strips 8-10, subject 2, 1st test): 115.22
combined amount of Pal-KTTKS on tape strips (array 4, active, strips 8-10, subject 2, 2nd test): 67.12
combined amount of Pal-KTTKS on tape strips (array 4, active, strips 8-10, subject 3 (2nd test of Table 7)): 53.45
combined amount of Pal-KTTKS on tape strips, Mean (array 9, active, average of subjects): 165.57
combined amount of Pal-KTTKS on tape strips, Mean (array 9, active, subject 1): 154.29
combined amount of Pal-KTTKS on tape strips, Mean (array 9, active, subject 2): 201.48
combined amount of Pal-KTTKS on tape strips, Mean (array 9, active, subject 3): 140.93
combined amount of Pal-KTTKS on tape strips (array 9, active, strips 2-4, average of subjects): 263.02
combined amount of Pal-KTTKS on tape strips (array 9, active, strips 2-4, subject 1): 177.13
combined amount of Pal-KTTKS on tape strips (array 9, active, strips 2-4, subject 2): 440.14
combined amount of Pal-KTTKS on tape strips (array 9, active, strips 2-4, subject 3): 171.79
combined amount of Pal-KTTKS on tape strips (array 9, active, strips 5-7, average of subjects): 120.01
combined amount of Pal-KTTKS on tape strips (array 9, active, strips 5-7, subject 1): 131.72
combined amount of Pal-KTTKS on tape strips (array 9, active, strips 5-7, subject 2): 100.02
combined amount of Pal-KTTKS on tape strips (array 9, active, strips 5-7, subject 3): 128.29
combined amount of Pal-KTTKS on tape strips (array 9, active, strips 8-10, average of subjects): 113.67
combined amount of Pal-KTTKS on tape strips (array 9, active, strips 8-10, subject 1): 154.03
combined amount of Pal-KTTKS on tape strips (array 9, active, strips 8-10, subject 2): 64.27
combined amount of Pal-KTTKS on tape strips (array 9, active, strips 8-10, subject 3): 122.70
delivery of Pal-KTTKS, active compared to passive application (bi-directional magnetic array #9): significant enhanced delivery
combined amount of Pal-KTTKS on tape strips, Mean (passive, comparator of array 4, Average): 50.00
combined amount of Pal-KTTKS on tape strips, Mean (passive, comparator of array 4, subject 1, 1st test): 59.18
combined amount of Pal-KTTKS on tape strips, Mean (passive, comparator of array 4, subject 1, 2nd test): 42.29
combined amount of Pal-KTTKS on tape strips, Mean (passive, comparator of array 4, subject 2, 1st test): 52.85
combined amount of Pal-KTTKS on tape strips, Mean (passive, comparator of array 4, subject 2, 2nd test): 23.30
combined amount of Pal-KTTKS on tape strips, Mean (passive, comparator of array 4, subject 3 (2nd test of Table 8)): 72.39
combined amount of Pal-KTTKS on tape strips (passive, comparator of array 4, strips 2-4, Average): 70.42
combined amount of Pal-KTTKS on tape strips (passive, comparator of array 4, strips 2-4, subject 1, 1st test): 79.94
combined amount of Pal-KTTKS on tape strips (passive, comparator of array 4, strips 2-4, subject 1, 2nd test): 69.89
combined amount of Pal-KTTKS on tape strips (passive, comparator of array 4, strips 2-4, subject 2, 1st test): 86.09
combined amount of Pal-KTTKS on tape strips (passive, comparator of array 4, strips 2-4, subject 2, 2nd test): 28.02
combined amount of Pal-KTTKS on tape strips (passive, comparator of array 4, strips 2-4, subject 3 (2nd test of Table 8)): 88.18
combined amount of Pal-KTTKS on tape strips (passive, comparator of array 4, strips 5-7, Average): 49.50
combined amount of Pal-KTTKS on tape strips (passive, comparator of array 4, strips 5-7, subject 1, 1st test): 65.58
combined amount of Pal-KTTKS on tape strips (passive, comparator of array 4, strips 5-7, subject 1, 2nd test): 35.35
combined amount of Pal-KTTKS on tape strips (passive, comparator of array 4, strips 5-7, subject 2, 1st test): 46.95
combined amount of Pal-KTTKS on tape strips (passive, comparator of array 4, strips 5-7, subject 2, 2nd test): 23.11
combined amount of Pal-KTTKS on tape strips (passive, comparator of array 4, strips 5-7, subject 3 (2nd test of Table 8)): 76.52
combined amount of Pal-KTTKS on tape strips (passive, comparator of array 4, strips 8-10, Average): 30.08
combined amount of Pal-KTTKS on tape strips (passive, comparator of array 4, strips 8-10, subject 1, 1st test): 32.01
combined amount of Pal-KTTKS on tape strips (passive, comparator of array 4, strips 8-10, subject 1, 2nd test): 21.64
combined amount of Pal-KTTKS on tape strips (passive, comparator of array 4, strips 8-10, subject 2, 1st test): 25.51
combined amount of Pal-KTTKS on tape strips (passive, comparator of array 4, strips 8-10, subject 2, 2nd test): 18.76
combined amount of Pal-KTTKS on tape strips (passive, comparator of array 4, strips 8-10, subject 3 (2nd test of Table 8)): 52.45
combined amount of Pal-KTTKS on tape strips, Mean (passive, comparator of array 9, average of subjects): 47.80
combined amount of Pal-KTTKS on tape strips, Mean (passive, comparator of array 9, subject 1): 42.29
combined amount of Pal-KTTKS on tape strips, Mean (passive, comparator of array 9, subject 2): 28.71
combined amount of Pal-KTTKS on tape strips, Mean (passive, comparator of array 9, subject 3): 72.39
combined amount of Pal-KTTKS on tape strips (passive, comparator of array 9, strips 2-4, average of subjects): 62.79
combined amount of Pal-KTTKS on tape strips (passive, comparator of array 9, strips 2-4, subject 1): 69.89
combined amount of Pal-KTTKS on tape strips (passive, comparator of array 9, strips 2-4, subject 2): 30.29
combined amount of Pal-KTTKS on tape strips (passive, comparator of array 9, strips 2-4, subject 3): 88.18
combined amount of Pal-KTTKS on tape strips (passive, comparator of array 9, strips 5-7, average of subjects): 50.50
combined amount of Pal-KTTKS on tape strips (passive, comparator of array 9, strips 5-7, subject 1): 35.35
combined amount of Pal-KTTKS on tape strips (passive, comparator of array 9, strips 5-7, subject 2): 39.62
combined amount of Pal-KTTKS on tape strips (passive, comparator of array 9, strips 5-7, subject 3): 76.52
combined amount of Pal-KTTKS on tape strips (passive, comparator of array 9, strips 8-10, average of subjects): 30.11
combined amount of Pal-KTTKS on tape strips (passive, comparator of array 9, strips 8-10, subject 1): 21.64
combined amount of Pal-KTTKS on tape strips (passive, comparator of array 9, strips 8-10, subject 2): 16.23
combined amount of Pal-KTTKS on tape strips (passive, comparator of array 9, strips 8-10, subject 3): 52.45
delivery of Pal-KTTKS, active compared to passive application (uni-directional magnetic array #4): significant enhanced delivery
Compound: CCCCCCCCCCCCCCCC(=O)N[C@@H](CCCCN)C(=O)N[C@H](C(=O)N[C@H](C(=O)N[C@@H](CCCCN)C(=O)N[C@@H](CO)C(=O)O)[C@@H](C)O)[C@@H](C)O [Pal-KTTKS, palmitoyl-lysine-threonine-threonine-lysine-serine] (Palmitoyl-KTTKS-OH; C-terminus assumed)
